Data on 8 compounds can be found in paper PMC6421079 (European neuropsychopharmacology : the journal of the …, 2018).

The term pKi denotes the negative decadic logarithm of the Ki, by convention in mol/L. Read a high pKi as a low Ki. Broadly, the pEC50 is the negative decadic logarithm of the EC50, by convention in mol/L. Higher therefore signals a small EC50.

The conditions of data set [1]: cited from earlier work.
The conditions of data set [2]: ref Groer et al., 2007; cited from earlier work.
A further data set concerns δ-ORs. The note with it: ref Chiang et al., 2016; Molinari et al., 2010; cited from earlier work.
The target in a further data set is δ-OR (Homo sapiens, UniProt P41143). Put plainly: Radioligand binding assay: displacement of [^3H]DPDPE.
Sequence of δ-OR (P41143 whole entry): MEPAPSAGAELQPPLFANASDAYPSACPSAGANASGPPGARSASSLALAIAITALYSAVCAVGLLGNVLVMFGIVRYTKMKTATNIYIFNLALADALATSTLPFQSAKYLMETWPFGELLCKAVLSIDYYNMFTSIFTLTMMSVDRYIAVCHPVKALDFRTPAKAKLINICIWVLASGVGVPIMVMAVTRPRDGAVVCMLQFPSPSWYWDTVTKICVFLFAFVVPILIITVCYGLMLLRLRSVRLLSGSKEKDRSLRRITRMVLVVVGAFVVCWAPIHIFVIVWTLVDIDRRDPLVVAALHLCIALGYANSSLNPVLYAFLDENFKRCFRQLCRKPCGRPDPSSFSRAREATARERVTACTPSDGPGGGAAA
Another data set concerns the target humanδ-OR / β-arrestin 2 (Homo sapiens, UniProt P41143). In words: β-arrestin 2 recruitment, CHO-humanδ-OR PathHunter cells. The class given is cell-based. The note with it: for efficacy α β-arrestin2: normalized to leu-enkephalin, mean ± SEM.
Data set [3] deals with δ opioid receptors (δ-ORs). The note with it: synthetic analog of rubiscolin-6; ref Yang et al., 2003b; cited from earlier work.

pEC50, pKi: −log10 of the molar value. Read-outs that look alike come from different tables or passages of the source. Where no end group is shown, it is not given here.

Sequence of humanδ-OR / β-arrestin 2 (P41143 whole entry): as above

Regarding `C[C@@H](Cc1ccsc1)NC(=O)NC[C@H](Cc1ccc(O)cc1)N(C)C` [PZM21], in data set [1] (ref Manglik et al., 2016), the side effect profile entry is on record as “appear to possess a reduced side effect profile”.
Consider `COc1ccsc1CNCC[C@@]1(c2ccccn2)CCOC2(CCCC2)C1` [TRV130], for which the side effect profile result in data set [1] (ref DeWire et al., 2013) is listed as “appear to possess a reduced side effect profile”.
As for `COC(=O)[C@@H]1C[C@H](OC(=O)c2ccccc2)C(=O)[C@H]2[C@@]1(C)CC[C@H]1C(=O)O[C@H](c3ccoc3)C[C@]21C` [herkinorin], in data set [2], the “G protein bias, in words” value is “G protein-biased”.
In the case of DADLE, the “β-arrestin recruitment, in words” value in the data set on δ-ORs is “strongly recruit β-arrestin”.
For the compound DPDPE, the “β-arrestin recruitment, in words” value in the data set on δ-ORs is reported as “strongly recruit β-arrestin”.
As for YPLDL [Rubiscolin-5], the pKi at δ-OR is 5.50. On humanδ-OR / β-arrestin 2, the pEC50 was 4.10 and the “efficacy α β-arrestin2” value worked out at 15±4.
In the same order, the values of YPLDLF [Rubiscolin-6] are 6.00, 5.10 and 20±3.
As for YPLDLV, the “potency and δ-OR selectivity, in words” value in data set [3] was “more potent and δ-OR-selective”.
